Laboratory results reported in PubChem BioAssay AID179 (DTP/NCI, 2004).
Activity calls are given as the source filed them.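 The calls were made as follows: active = compounds giving half or more protection of infected cells from virus-caused growth loss, again on retest; inactive = the rest.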 Where a SMILES comes first, the peptide text is derived from it. The star is where a group is joined. Cbz = O=C(OCc1ccccc1)*; OBn = c1ccc(CO*)cc1

Tested on: CEM cells HIV-1 protection, formazan growth assay
Test: NCI AIDS Antiviral Assay
Conditions: for IC50: measured here: growth of uninfected CEM cells
How it was run: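 Protection of CEM cells against HIV-1 was scored from cell growth (soluble formazan) across five concentrations, with parallel uninfected cells. Lack of protection may reflect toxicity.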

SMILES	EC50 [µM]	IC50 [µM]	outcome
CO/C(=C/C(=O)c1ccccc1)C(=O)c1ccccc1	> 115	61.7	
N#CCCN(CCC#N)CCN(CCN(CCC#N)CCC#N)CCN(CCC#N)CCC#N	> 200	> 200	
NC(=S)N/N=C1\NC(=O)/C(=C/c2ccc3c(c2)OCO3)S1	> 200	158	
CCc1c(Cc2cc(C)cc(C)c2)n(COCCCCOC(=O)c2ccccc2)c(=O)[nH]c1=O	0.00692	2	
CN(C)c1ccc(/C=C(\C#N)C(=O)c2ccccc2)cc1	> 29.5	6.17	
N/N=C(/CC(O)(C(F)(F)F)C(F)(F)F)c1ccccc1	> 200	112	
O=C(Nc1ccc(Cl)cc1)c1ccccc1[Se][Se]c1ccccc1C(=O)Nc1ccc(Cl)cc1	2.95	8.51	
O=[N+]([O-])c1c(Cl)cccc1-c1c[nH]c(Cl)c1Cl	> 123	20.4	
CCOC(=O)/C(C#N)=C/c1ccco1	> 263	> 263	
C1CCC2(CC1)CCCN2	> 200	> 200	
COc1ccc(C2CCC(=O)CC2(O)C(=O)O)cc1 (stereo not given)	> 251	> 251	
CSc1ccc(NC(=O)Nc2cc(C)ccn2)cc1	> 200	191	
Oc1ccc(Cc2nccc3cc(O)c(O)cc23)cc1O	> 200	29.5	
CCCCCCCCCCCCNC1=C(Cl)C(=O)C(=O)c2cccnc21	53.7	174	
CN1CCN(c2n[nH]c(=O)c3c2nnn3C2CCCCC2)CC1	> 200	> 200	
COC(=O)/C(=N/O)C(C(=O)C=C(C)C)C(=O)C(=O)Nc1nc2ccc([N+](=O)[O-])cc2s1 (stereo not given)	> 41.7	32.4	
N=c1c2ccccc2sc2nc3ccccc3n12	> 52.5	> 52.5	
Cc1cccc(C)c1NC(=O)C1C(=O)N(c2c(C)cccc2C)C(=O)/C1=N\N (stereo not given)			inactive
CC1=NN(C(=O)CC(=O)Nc2cccc(C)c2)C(=O)C1N=Nc1ccc(S(=O)(=O)c2ccc(N=NC3C(=O)N(C(=O)CC(=O)Nc4cccc(C)c4)N=C3C)cc2)cc1 (stereo not given)	> 50.1	> 50.1	
C=CCC1(O)C(CO[Si](C)(C)C(C)(C)C)OC(n2ccc(=O)[nH]c2=O)C1O[Si](C)(C)C(C)(C)C (stereo not given)	> 200	10.2	
CC(C)(C)C1=CC(=C(P(=O)(O)O)P(=O)(O)O)C=C(C(C)(C)C)C1=O	> 537	> 537	
Cc1c(C(=O)CC(=O)C(=O)Nc2cc(Cl)ccc2Cl)[n+](=O)c2ccccc2n1[O-]	> 8.71	> 8.71	

SMILES	EC50 [µM]	IC50 [µM]	outcome
BrC(/C=N/Nc1nnc(-c2ccccc2)c(-c2ccccc2)n1)C(Br)c1ccccc1 (stereo not given)	> 13.5	> 13.5	
CN1CCCC(CNC23CC4CC(CC(C4)C2)C3)C1 (stereo not given)	> 501	> 501	
c1cc(C2N3CCCN2CC3)ccn1 (stereo not given)			inactive
CCN(CC)CC.CCOc1ccc(NC(=O)N=C=[N-])cc1.[CH-]1CCCCC1.[CH-]1CCCCC1.[CH-]1CCCCC1.[Cl-].[Sn+4]			inactive
COC(=O)C12C3C4(C(=O)OC)C1C1(C(=O)OC)C2C3(C(=O)OC)C41C(=O)N(C(C)C)C(C)C (stereo not given)	> 200	> 200	
CC(C)(C)OC(=O)N1N=CCC1c1ccccc1 (stereo not given)	> 200	> 200	
COC(=O)CNC(=O)C(C)NC(=O)C(CC(=O)OCc1ccccc1)NC(=O)OCc1ccccc1 (stereo not drawn) (Cbz-Asp(OBn)-Ala-Gly-OMe; configuration not given here)	> 200	107	
CC1=C(C(=O)NCc2ccccc2)C(c2ccccc2[N+](=O)[O-])C(C(=O)NCc2ccccc2)=C(C)N1	> 7.59	> 7.59	
CC1(C)SC2C(NC(=O)C(N)c3ccccc3)C(=O)N2C1C(=O)O (stereo not given)	> 200	> 200	
CC(O)CN(N)CC(C)O (stereo not given)			inactive
CCC(=O)c1c(CC)ccc2ccccc12	> 200	105	
CC(=O)NC(/C=C\C(=O)O)C(=O)O (stereo not given)	> 200	> 200	
CC1=C(C(=O)NNC(=O)CC#N)CC(C(=O)NNC(=O)CC#N)=C(C)N1	> 200	123	
CCN(CC)C(=S)N/N=C/c1ccccn1	> 0.2	0.00363	
COC(=O)C1=C(C(=O)OC)C(N(C)C)C(C(=O)OC)=C(C(=O)OC)S1	> 200	> 200	
Cc1ccc(O)c(C(c2cc(C)ccc2O)c2cc([N+](=O)[O-])ccc2O)c1			inactive
Cc1nn2c(c1C#N)NNc1c-2sc(=N)nnc1=O	31.6	43.7	
Cn1c2c(c3ccccc3c1=O)C(=O)c1ccccc1-2	> 14.5	7.41	
Cc1ccc(C)c(NC(=O)CC/C(=N\NC(=O)C(=O)NN)C(C)C(=O)c2ccc(O)cc2)c1 (stereo not given)			inactive
Cc1ccc2nc(N)[nH]c(=O)c2c1Sc1ccncc1	> 363	1.35	
C=C(CCCCOCOCCOC)[Si](C)(C)C	> 138	> 138	
NS(=O)(=O)c1cc2c(cc1Cl)NC(CC1CCCC1)NS2(=O)=O (stereo not given)	> 200	> 200	

SMILES	EC50 [µM]	IC50 [µM]	outcome
COc1ccc(OC)c(CSc2ccc(OC)c(OC)c2)c1	> 200	85.1	
O=C1COC(c2ccccc2O)=NN1CCN1CCOCC1	> 105	> 105	
Nc1ccc(N=Nc2ccc(CCc3ccc(N=Nc4ccc(N)c5cc(S(=O)(=O)O)ccc45)cc3S(=O)(=O)O)c(S(=O)(=O)O)c2)c2ccc(S(=O)(=O)O)cc12	> 145	53.7	
Cc1cc(-c2cscn2)c(O)c([N+](=O)[O-])c1	> 200	35.5	
NC1CNC(=O)c2cscc21 (stereo not given)	> 200	> 200	
O=C(NCCN1CCCCC1)c1cccc(I)c1	> 200	> 200	
O=C1CCCC/C(=C/c2ccccc2)N1			inactive
COc1cccc(/C=C2/Sc3scc(-c4ccccc4)[n+]3C2=O)c1O	> 200	11.7	
NC1=NN(c2ccccc2)C(=O)C1C(=O)C(=O)Nc1cccc(C(F)(F)F)c1 (stereo not given)			inactive
CC(C)C(=O)[O-].CC(C)C(=O)[O-].N.N.N.N.[Co+3].[O-][Cl+3]([O-])([O-])[O-]			inactive
NCCCNOCCCN	> 200	> 200	
CC12OC(=O)C(C#N)C1(C)C1C(=O)CCCC12 (stereo not given)			inactive
CC(C)=CCC[C@@H](C)/C=C/C=C(\C)C(=O)CC[C@@H]1CC[N@+]2(C)CCCC[C@H]12	> 200	46.8	
C[C@@H](c1ccccc1)C(CC#N)[C@H]1CCC[C@]1(O)C#Cc1ccc2c(c1)OCO2 (stereo not given in full)	> 200	11.5	
Oc1ccc(N=C2N=c3c(c4ccccc4c4ccccc34)=N2)c2ccccc12	> 200	4.57	
C/C(=N\NS(=O)(=O)c1ccc([N+](=O)[O-])cc1)c1ccc[n+]([O-])n1			inactive
O=C1NC(O)c2cccc(Cl)c2O1 (stereo not given)			inactive
O=C(O)c1cc2cc3c(cc2c2ccccc12)OCO3	> 490	282	
COC(=O)c1ccc(NCC2=CC(=O)C=CC2=O)cc1	> 200	1	
CSc1nc2c(nc(N)n2C2OCC(O)C(O)C2O)c(=O)[nH]1 (stereo not given)			inactive
COc1ccc(/C=C2\N=C(N3CCCCC3)NC2=O)cc1	> 200	> 100	
C=CCSCCCC#Cc1ccccc1C(=O)OC	> 200	151	

SMILES	EC50 [µM]	IC50 [µM]	outcome
O=C(O)c1cc(Cc2ccc(O)c(C(=O)O)c2)ccc1O	562	871	active
O=c1c2ccccc2[nH]c2c(O)ccc(O)c12			inactive
O=C1[C@H]2ON(c3ccccc3)C(c3ccc([N+](=O)[O-])cc3)[C@H]2C(=O)N1c1ccc(Cc2ccc(N3C(=O)[C@@H]4ON(c5ccccc5)C(c5ccc([N+](=O)[O-])cc5)[C@@H]4C3=O)cc2)cc1 (stereo not given in full)	> 8.51	> 8.51	
CCn1c(SC(C)C(=O)c2c(C)n(C)n(-c3ccccc3)c2=O)nc2ccccc2c1=O (stereo not given)	> 112	> 112	
CC(C)(C)OC(=O)N1CCCC1=O	> 200	> 200	
C=CC1=CC2(O[Si](C(C)C)(C(C)C)C(C)C)CCC1C(COCc1ccccc1)C2C(=O)O (stereo not given)	> 28.8	20	
C=CP(=S)(c1ccccc1)c1ccccc1	> 56.2	> 56.2	
C=CCN(c1cc(OC)c2[nH]cc(C)c2c1[N+](=O)[O-])S(C)(=O)=O	97.7	> 100	
COc1ccc(C[C@H](N)C(=O)N2C[C@H](CO)C[C@H](n3ccc(=O)[nH]c3=O)C2)cc1	> 617	> 617	
OCC1OC(n2cnc3c(Cl)nc(Nc4ccc(Cl)c(Cl)c4)nc32)CC1O (stereo not given)	> 200	3.72	
CCOc1ccc(NC(=S)/N=C/c2c(O)cc(C)oc2=O)cc1			inactive
CC(=O)C(/C=N\C(N)=S)=C(\C)O	> 200	> 200	
C/C(O)=C(/C=NC(=S)C(N)=S)C(=O)Nc1ccccc1	> 200	102	
CN(C)c1ccc(/C=C(\C#N)c2ccc(Br)cc2)cc1	> 100	1.35	
COc1ccc(-c2c3c(n(C4OC(COC(C)=O)C(OC(C)=O)C(OC(C)=O)C4OC(C)=O)c(=S)c2C#N)CCCC3)cc1 (stereo not given)	> 200	89.1	
CC(=O)N1c2ccccc2[C@H]2CCc3c([nH]c4ccccc34)[C@H]21	> 20	12.9	
CC1=CC(=O)C(=O)C2=C1OC1(C2)C(C)CCC2C3(C)CCC(O)C(C)(C)C3CCC21C (stereo not given)	> 100	47.9	
N#CCC(C#N)N1CCOCC1 (stereo not given)	> 200	> 200	
CCCCCC1C(=O)N2C=C(c3ccccc3)c3ccccc3N2C1=O (stereo not given)			inactive
O=[N+]([O-])C(=C1NCCN1)C(Cl)=C(Cl)Cl	> 200	> 200	
COc1cc(OC)nc(-n2c(N)c(C#N)c3ccc([N+](=O)[O-])cc3c2=O)n1	> 200	> 200	
c1ccc2c(c1)nc1nc3c(cn12)CCCCC3			inactive
